Experimental data from article PMC7670487 (ACS Infectious Diseases, 2020).
Like-named read-outs stand apart in the source and are kept apart here.

How the values were obtained:
[1] = system: T. cruzi (Y strain) trypomastigotes; assay: Antitrypomastigote assay (resazurin viability); type: cell-based; settings: Trypanosoma cruzi, LLC-MK2-derived trypomastigotes, 24 h incubation, up to 100 μM, read-out: IC50 (μM) ± SD trypomastigote
Protocol: Our attention next turned to an evaluation of the activity of the various natural product analogues against T. cruzi amastigotes (evaluated microscopically using an ex vivo intracellular model with mice macrophages)[20] and trypomastigotes (resazurin in vitro assay).[30] […] Macrophages were collected from the peritoneal cavity of BALB/c mice by washing them with RPMI-1640 medium supplemented with 10% fetal calf serum and were maintained at 37 °C in a 5% CO2 humidified incubator. Trypomastigotes of T. cruzi (Y strain) were maintained in Rhesus monkey kidney cells (LLC-MK2, ATCC CCL 7) and cultivated in RPMI-1640 medium supplemented with 2% fetal calf serum at 37 °C in a 5% CO2 humidified incubator. Murine conjunctive cells (NCTC clone 929, ATCC) were maintained in RPMI-1640 supplemented with 10% FBS at 37 °C in a 5% CO2 humidified incubator.[20] LLC-MK2-derived trypomastigotes were seeded (1 × 10^6 cells/well) in 96-well plates and incubated with the compounds serially diluted 2-fold (up to 100 μM) for 24 h in RPMI 1640 medium at 37 °C in a 5% CO2 humidified incubator. Subsequently, resazurin (0.011% in PBS) was added for 24 h to check the parasite viability.[30] The optical density was determined in the FilterMax F5 (Molecular Devices) at 570 nm. Benznidazole was used as the standard. IC50 and CC50 values were calculated using a sigmoid dose–response curve in GraphPad Prism 6.0 software (GraphPad Software, San Diego, CA, USA). The assays were repeated at least twice, and the samples were tested in duplicate.

T. cruzi amastigotes [2] = assay: Antiamastigote assay (intracellular, infected peritoneal macrophages, infection index by microscopy); type: cell-based, Trypanosoma cruzi; settings: for IC50: Trypanosoma cruzi, Peritoneal macrophage, in Mus musculus, intracellular amastigotes in BALB/c peritoneal macrophages, 48 h, 30–0.23 μM, read-out: IC50 (μM) ± SD amastigote
Protocol: Our attention next turned to an evaluation of the activity of the various natural product analogues against T. cruzi amastigotes (evaluated microscopically using an ex vivo intracellular model with mice macrophages)[20] and trypomastigotes (resazurin in vitro assay).[30] […] Macrophages were collected from the peritoneal cavity of BALB/c mice by washing them with RPMI-1640 medium supplemented with 10% fetal calf serum and were maintained at 37 °C in a 5% CO2 humidified incubator. Trypomastigotes of T. cruzi (Y strain) were maintained in Rhesus monkey kidney cells (LLC-MK2, ATCC CCL 7) and cultivated in RPMI-1640 medium supplemented with 2% fetal calf serum at 37 °C in a 5% CO2 humidified incubator. Murine conjunctive cells (NCTC clone 929, ATCC) were maintained in RPMI-1640 supplemented with 10% FBS at 37 °C in a 5% CO2 humidified incubator.[20] Peritoneal macrophages (1 × 10^5 cells/well), collected from the peritoneal cavity of the BALB/c mice, were seeded in 16-well chamber slides (NUNC, Thermo Fisher Scientific) and infected with trypomastigotes (10:1, parasite/macrophage ratio). After 2 h, the compounds (in concentrations of 30–0.23 μM) were incubated with infected macrophages for 48 h at 37 °C in a 5% CO2 humidified incubator. The slides were fixed with MeOH, stained with Giemsa, and observed under a light microscope (EVOS M5000, Termo, USA) with digital image equipment. […] IC50 and CC50 values were calculated using a sigmoid dose–response curve in GraphPad Prism 6.0 software (GraphPad Software, San Diego, CA, USA). The assays were repeated at least twice, and the samples were tested in duplicate.

[3] = Cytotoxicity against mammalian cells (MTT); type: cell-based, murine; settings: mouse, NCTC clone 929 fibroblast cells; NCTC clone 929 cells, 48 h, 200–1.56 μM, MTT
Protocol: (§1) Macrophages were collected from the peritoneal cavity of BALB/c mice by washing them with RPMI-1640 medium supplemented with 10% fetal calf serum and were maintained at 37 °C in a 5% CO2 humidified incubator. Trypomastigotes of T. cruzi (Y strain) were maintained in Rhesus monkey kidney cells (LLC-MK2, ATCC CCL 7) and cultivated in RPMI-1640 medium supplemented with 2% fetal calf serum at 37 °C in a 5% CO2 humidified incubator. Murine conjunctive cells (NCTC clone 929, ATCC) were maintained in RPMI-1640 supplemented with 10% FBS at 37 °C in a 5% CO2 humidified incubator.[20] […] The selectivity index (SI) was determined as CC50/IC50 against amastigotes. IC50 and CC50 values were calculated using a sigmoid dose–response curve in GraphPad Prism 6.0 software (GraphPad Software, San Diego, CA, USA). The assays were repeated at least twice, and the samples were tested in duplicate.

[4] = system: Fibroblast NCTC cells (clone 929); assay: Cytotoxicity against mammalian cells (MTT); type: cell-based, murine; settings: for SI (selectivity index): ratio between CC50 in NCTC cells and IC50 in intracellular amastigotes; for CC50 (μM) ± SD: NCTC clone 929 cells, 48 h, 200–1.56 μM, MTT
Protocol: as §1

T. cruzi amastigotes [5] = settings: T. cruzi intracellular amastigotes; read-out: IC50 (μM) ± SD amastigote; cited from earlier work
[6] = system: Fibroblast NCTC cells (clone 929); settings: cited from earlier work

Row | Structure (SMILES) | IC50 [1] [µM] | IC50 (T. cruzi amastigotes [2]) [µM] | CC50 at 48 h [3] [µM] | SI (selectivity index) [4] | fold more potent than the natural product 1 against the amastigotes (T. cruzi amastigotes [2]; relative to compound 1, amastigote IC50) | IC50 (T. cruzi amastigotes [5]) [µM] | CC50 ([6]; NCTC cells) [µM] | SI (selectivity index) ([6]; ratio between CC50 in NCTC cells and IC50 in intracellular amastigotes) | CC50 (μM) ± SD [4]
1 | C=CCc1ccc(Oc2cc(CC=C)cc(OC)c2OCOC)c(OC)c1 [Compound 5] | 6.5 ± 4.9 | 24.4 ± 10.3 | > 200 | >8.2 |  |  |  |  | 
2 | CCCc1ccc(Oc2cc(CCC)cc(OC)c2OC)c(OC)c1 [Compound 9] |  |  |  |  |  | 13.3 ± 1.2 | > 200 | >15.0 | 
3 | C=CCc1cc(OC)c(O)c(Oc2ccc(CCC)cc2OC)c1 [Compound 13] | 7.6 ± 1.9 | 16.6 ± 1 | 42 ± 3.8 | 2.5 |  |  |  |  | significant mammalian toxicity
4 | C=CCc1ccc(Oc2cc(CC=C)cc(OC)c2O)cc1 [Compound 15, 3-methylobovatol] | 4.6 ± 3 | 22.5 ± 18.8 | 123 ± 9.4 | 5.5 |  |  |  |  | 
5 | C=CCc1cc(OC)c(OC)c(Oc2ccccc2OC)c1 [Compound 16] | 20.3 ± 0.4 |  | > 200 |  |  |  |  |  | 
6 | C=CCc1cc(OC)c(OCc2ccc(OC)cc2)c(Oc2ccccc2OC)c1 [Compound 17] |  |  | > 200 |  |  |  |  |  | 
7 | C=CCc1ccc(Oc2cc(CCC)cc(OC)c2O)c(OC)c1 [Compound 19] | 4.6 ± 3.8 | 10.5 ± 8.3 | 14.2 ± 0.1 | 1.3 |  |  |  |  | significant mammalian toxicity
8 | C=CCc1ccc(Oc2cccc(OC)c2OC)c(OC)c1 [Compound 20] | 63.1 ± 6.2 | 25.7 ± 12.2 | > 200 | >7.8 |  |  |  |  | 
9 | C=CCc1ccc(Oc2cccc(OC)c2OCc2ccc(OC)cc2)c(OC)c1 [Compound 21] |  |  | > 200 |  |  |  |  |  | 
10 | C=CCOc1c(OC)cccc1Oc1ccc(CC=C)cc1OC [Compound 22] |  |  | > 200 |  |  |  |  |  | 
11 | C=CCc1ccc(O)c(Oc2ccc(CC=C)cc2OC)c1 [Compound 23] | 2.5 ± 1.3 | 7.7 ± 1.3 | 129 ± 5.2 | 16.7 |  |  |  |  | 
12 | C=CCc1cc(OC)cc(Oc2ccc(CC=C)cc2OC)c1 [Compound 25] |  | 10.9 ± 6.5 | > 200 | >18.3 |  |  |  |  | 
13 | O=C(Cn1ccnc1[N+](=O)[O-])NCc1ccccc1 [benznidazole, reference compound] | 17.7 ± 1.9 | 5 ± 1.5 | 191 ± 13.4 | 38.1 |  |  |  |  | 

More lines, main results first:

Row | IC50 [1] [µM] | IC50 (T. cruzi amastigotes [2]) [µM] | Structure (SMILES) | CC50 at 48 h [3] [µM] | SI (selectivity index) [4] | fold more potent than the natural product 1 against the amastigotes (T. cruzi amastigotes [2]; relative to compound 1, amastigote IC50) | IC50 (T. cruzi amastigotes [5]) [µM] | CC50 ([6]; NCTC cells) [µM] | SI (selectivity index) ([6]; ratio between CC50 in NCTC cells and IC50 in intracellular amastigotes) | CC50 (μM) ± SD [4]
14 |  | 4 ± 1.4 | C=CCc1ccc(Oc2cc(CC=C)cc(OC)c2OCc2ccc(OC)cc2)c(OC)c1 [Compound 6] | > 200 | >50 | approximately 20 fold |  |  |  | 
15 |  | 5.5 ± 3.5 | CCCc1ccc(Oc2cc(CCC)cc(OC)c2OCc2ccc(OC)cc2)c(OC)c1 [Compound 10] | > 200 | >36.4 |  |  |  |  | 
16 | 21.9 ± 6.1 | 11.7 ± 7 | C=CCc1cc(OC)c(OC)c(Oc2ccc(CCC)cc2OC)c1 [Compound 11] | > 200 | >17.1 |  |  |  |  | 
17 |  | 8.6 ± 2.1 | C=CCc1cc(OC)c(OCc2ccc(OC)cc2)c(Oc2ccc(CCC)cc2OC)c1 [Compound 12] | > 200 | >23.3 |  |  |  |  | 
18 |  | 11 ± 2.3 | C=CCc1ccc(Oc2cc(CC=C)cc(OC)c2OCc2ccc(OC)cc2)cc1 [Compound 14] | > 200 | >18.2 |  |  |  |  | 
19 |  | 13.4 ± 5.4 | C=CCc1ccc(Oc2cc(CCC)cc(OC)c2OCc2ccc(OC)cc2)c(OC)c1 [Compound 18] | > 200 | >14.9 |  |  |  |  | 
20 |  | 11.6 ± 8.4 | C=CCc1ccc(Oc2cc(CC=C)ccc2OCc2ccc(OC)cc2)c(OC)c1 [Compound 24] | > 200 | >17.2 |  |  |  |  | 
